Test results published in patent publication US20210032257A1, “(E)-1-(4-(DIMETHYLAMINO)BUT-2-ENOYL)PYRROLIDIN-3-YL 4-((3-ISOPROPYL-5-METHYLPYRAZOLO[1,5-A]PYRIMIDIN-7-YL)AMINO)PIPERIDINE-1-CARBOXYLATE FOR INHIBITING CDK7” (Eli Lilly and Company, priority 2017, published 2021).

Experiments:
[1] = system: phospho-carboxyl terminal domain (Ser2) in HCT116 cells; test: p-CTD (S2) cell based Acumen assay; conditions: Homo sapiens, HCT-116, 4 hours, read-out: relative IC50 for phosphoCTD (S2)
Experimental: HCT116 cells (ATCC CCL-247) are cultured in McCoy's 5A Medium Modified media supplemented with 10% FBS, 1% NaPyr and 1% Pen/Strep and plated (prior to becoming 70% confluent) in 96-well flat-bottom plates at a density of 5,000 cells per well in 100 μL volume. The cells are then incubated overnight in a cell culture incubator (5% CO2, 95% Relative Humidity (RH) and 37° C.) and allowed to attach to the plate. The following morning the cells are dosed with compounds. Compound inhibitors are first solubilized at 60 μM in culture medium containing 0.6% DMSO. Subsequently compound serial dilutions (1:3) are prepared over a […] to […] range. […]
The following day cells are washed three times with PBS (100 μL/well) and incubated with 50 μL/well of secondary antibody (1:2000 dilution, Goat anti-rabbit IgM ALEXA FLUOR™ 488) in PBS for 1 hour at RT. […] Plates are analyzed on Acumen on FL2 (mean intensity), and FL3 (total intensity). Fluorescence plates are scanned with ACUMEN EXPLORER™ [Laser-scanning fluorescence microplate cytometer manufactured by TTP LABTECH LTD] to measure anti-phospho-carboxyl terminal domain at Serine 2 (pCTD). […]
The IC50 is determined by curve fitting to a four parameter logistic for each output using GENE DATA™.

HCT8 = test: Biomarker study proliferation (CellTiter-Glo); type: cell-based
Experimental: (§1) Cancer cell lines are profiled to evaluate the anti-proliferative activity of a test compound in-vitro. Mutation, copy number and gene expression information of ARID1A, KMT2C, KMT2D and/or RB1 genes across cancer cell lines is obtained from COSMIC database (cancer.sanger.ac.uk) and cBioportal (http://www.cbioportal.org/). Cells are cultured in growth medium and plated into a 96-well plate in 100 μL/well growth medium at 5000 cells/well then incubated at 37° C., 5% CO2 overnight. Cells are cultured using supplier recommended media and conditions well known in the art, for example with RPMI 1640 with or without HEPES & L-Glutamine (Thermo SH30255.01) and 1 mM Sodium Pyruvate, and 10% FBS(Gibco cat #10082). The 1000× intermediate dilution plate is prepared by making a 10 mM working solution of a test sample in DMSO and performing 1:3 dilutions in DMSO for 10 points. The 10× dosing plate is prepared by adding 2 μL from the 1000× intermediate dilution plate to 198 μL of OPTIMEM®+10% FBS and mixing well. The cell plate is then treated by adding 11 μL from the 10× dosing plate into the 100 μL/well cell plate for a 1× final concentration. Staurosporine is used as a maximum growth inhibition control at a final concentration of 5 μM. The cell plate is incubated for 7 days at 37° C., 5% CO2. Seven days after treatment, Cell Titer-Glo® (Promega cat #G7571) assay buffer and substrate are removed from −20° C. and allowed to equilibrate to RT. Assay buffer is added to the substrate and swirled gently to mix. The CELL TITER-GLO® reagent (100 μL/well) is added to the cell plate and incubated at RT for 15 minutes. After 15 minutes, luminescence is read using a plate reader. Data is analyzed in Excel and graphed in GraphPad Prism. Statistical analysis and p value is calculated using Mann-Whitney nonparameteric t tests using GraphPad Prism.
(§2) Anti-proliferative effects of a test compound are categorized as insensitive (IC50≥1 μM), cytostatic (IC50<1 μM and % inhibition <70%) or cytotoxic (IC50<1 μM and % inhibition ≥70%).

HEC108 = test: Biomarker study proliferation (CellTiter-Glo); type: cell-based
Experimental: as §1, §2

LI7 = test: Biomarker study proliferation (CellTiter-Glo); type: cell-based
Experimental: as §1, §2

M14 = test: Biomarker study proliferation (CellTiter-Glo); type: cell-based
Experimental: as §1, §2

NCIH146 = test: Biomarker study proliferation (CellTiter-Glo); type: cell-based
Experimental: as §1, §2

NCIH2030 = test: Biomarker study proliferation (CellTiter-Glo); type: cell-based
Experimental: as §1, §2

SNU1196 = test: Biomarker study proliferation (CellTiter-Glo); type: cell-based
Experimental: as §1, §2

CDK9/cyclinT1 = CDK9/cyclinT1 (Homo sapiens, UniProt P50750); test: Assay for inhibition of CDK9/CyclinT1 kinase activity (radiolabel filter binding)
Experimental: The IC50 determination for CDK7 and CDK9 are determined as follows.
The IC50 activity of the inhibitor is determined using radiolabel filter binding (FB) assays using the purified human recombinant enzyme in the presence of ATP and peptide substrate. The ATP concentrations chosen are at or near the enzyme Km for ATP. Reactions are carried out in 96 well polystyrene plates in a final volume of 25 μL per well. 5 μL of test compound in 20% DMSO, 10 μL of substrate solution (ATP//[^33P]ATP and CDK7/9 tide) and 10 μL of enzyme solution are mixed. […] The enzyme solution is prepared for a final concentration of 7.5 nM CDK9/cyclinT1 enzyme [Proqinase 0371-0345-1 (Lot 004)] diluted in kinase buffer. Test compounds are serially diluted 1:3 in 20% DMSO to create a 10 point curve at a starting concentration of 2 μM. 20% DMSO buffer alone without test compound is employed as high control (full activity in the absence of any inhibitor), 500 mM EDTA is used to determine the level of background in the absence of enzyme activity (low control). After mixing 5 μL of compounds with 10 μL of enzyme solution the plate is incubated for 0 or 180 minutes at 22° C. After that time the reaction is initiated by the addition of 10 μL substrate solution and incubated for 60 minutes at 22° C. […] 80 μL of MICROSCINT™ is added to each well and read on a scintillation counter after an hour. […]

[2] = 168 h, read-out: Anti-proliferation effect IC50

CDK9/cyclinT1, sequence (P50750 whole entry): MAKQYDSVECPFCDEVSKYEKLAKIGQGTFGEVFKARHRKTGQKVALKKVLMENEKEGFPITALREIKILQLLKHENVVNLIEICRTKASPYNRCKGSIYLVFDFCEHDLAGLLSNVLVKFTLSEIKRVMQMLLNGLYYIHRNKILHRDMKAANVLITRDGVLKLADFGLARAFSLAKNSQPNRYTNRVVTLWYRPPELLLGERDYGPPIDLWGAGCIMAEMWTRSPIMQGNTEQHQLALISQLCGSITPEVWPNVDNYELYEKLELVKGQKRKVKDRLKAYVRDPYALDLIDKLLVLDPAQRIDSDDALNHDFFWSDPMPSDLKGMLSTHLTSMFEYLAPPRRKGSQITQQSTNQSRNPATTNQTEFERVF
CDK9/cyclinT1, sequence (O60563 whole entry partner): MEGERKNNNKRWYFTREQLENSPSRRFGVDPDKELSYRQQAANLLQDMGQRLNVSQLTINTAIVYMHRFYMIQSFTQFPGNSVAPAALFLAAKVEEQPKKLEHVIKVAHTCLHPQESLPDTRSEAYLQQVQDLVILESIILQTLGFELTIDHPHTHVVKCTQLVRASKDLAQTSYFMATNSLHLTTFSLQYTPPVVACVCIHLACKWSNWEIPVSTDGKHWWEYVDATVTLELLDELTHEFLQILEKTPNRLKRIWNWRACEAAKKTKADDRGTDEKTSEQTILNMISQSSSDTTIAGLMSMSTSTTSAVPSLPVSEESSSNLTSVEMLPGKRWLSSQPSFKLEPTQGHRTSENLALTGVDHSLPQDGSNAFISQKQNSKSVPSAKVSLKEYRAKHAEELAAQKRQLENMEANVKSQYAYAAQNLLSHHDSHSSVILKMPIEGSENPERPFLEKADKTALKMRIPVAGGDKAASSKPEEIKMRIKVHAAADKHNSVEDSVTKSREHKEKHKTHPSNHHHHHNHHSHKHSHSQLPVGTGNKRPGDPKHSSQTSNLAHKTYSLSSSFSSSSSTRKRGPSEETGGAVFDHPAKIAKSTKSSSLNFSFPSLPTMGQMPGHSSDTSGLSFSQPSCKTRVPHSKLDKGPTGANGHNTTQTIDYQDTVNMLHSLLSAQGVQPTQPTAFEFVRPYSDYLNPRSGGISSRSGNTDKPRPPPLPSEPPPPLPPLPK

SMILES: Cc1cc(NC2CCN(C(=O)O[C@H]3CCN(C(=O)/C=C/CN(C)C)C3)CC2)n2ncc(C(C)C)c2n1 [Example 1, [(3S)-1-[(E)-4-(dimethylamino)but-2-enoyl]pyrrolidin-3-yl] 4-[(3-isopropyl-5-methyl-pyrazolo[1,5-a]pyrimidin-7-yl)amino]piperidine-1-carboxylate]
- IC50 [1]: > 2000 nM
- Anti-proliferation effect % Inh. (HCT8; HCT8, INTESTINE, 7 days): 3%
- Anti-proliferation effect Outcome (HCT8; HCT8, INTESTINE, 7 days): Cytostatic (cytostatic (IC50<1 μM and % inhibition <70%))
- IC50 (HCT8; Homo sapiens, HCT-8, 168 h, read-out: Anti-proliferation effect IC50): 981 nM
- IC50 (HEC108; [2]): 31 nM
- Anti-proliferation effect % Inh. (HEC108; HEC108, ENDOMETRIUM, 7 days): 90%
- Anti-proliferation effect Outcome (HEC108; HEC108, ENDOMETRIUM, 7 days): Cytotoxic (cytotoxic (IC50<1 μM and % inhibition ≥70%))
- Anti-proliferation effect % Inh. (LI7; LI7, LIVER, 7 days): 76%
- Anti-proliferation effect Outcome (LI7; LI7, LIVER, 7 days): Cytotoxic (cytotoxic (IC50<1 μM and % inhibition ≥70%))
- IC50 (LI7; Li-7, 168 h, read-out: Anti-proliferation effect IC50): 132 nM
- IC50 (M14; Homo sapiens, M14, 168 h, read-out: Anti-proliferation effect IC50): 32 nM
- Anti-proliferation effect % Inh. (M14; M14, SKIN, 7 days): 85%
- Anti-proliferation effect Outcome (M14; M14, SKIN, 7 days): Cytotoxic (cytotoxic (IC50<1 μM and % inhibition ≥70%))
- IC50 (NCIH146; Homo sapiens, NCI-H146, 168 h, read-out: Anti-proliferation effect IC50): 30 nM
- Anti-proliferation effect % Inh. (NCIH146; NCIH146, LUNG, 7 days): 77%
- Anti-proliferation effect Outcome (NCIH146; NCIH146, LUNG, 7 days): Cytotoxic (cytotoxic (IC50<1 μM and % inhibition ≥70%))
- IC50 (NCIH2030; Homo sapiens, NCI-H2030, 168 h, read-out: Anti-proliferation effect IC50): 5.37 µM
- Anti-proliferation effect % Inh. (NCIH2030; NCIH2030, LUNG, 7 days): 9%
- Anti-proliferation effect Outcome (NCIH2030; NCIH2030, LUNG, 7 days): Insensitive (insensitive (IC50≥1 μM))
- IC50 (SNU1196; [2]): 43 nM
- Anti-proliferation effect % Inh. (SNU1196; SNU1196, BILIARY, 7 days): 68%
- Anti-proliferation effect Outcome (SNU1196; SNU1196, BILIARY, 7 days): Cytostatic (cytostatic (IC50<1 μM and % inhibition <70%))
- IC50 (CDK9/cyclinT1): 5.9 µM
